The text below walks through data of US7687079B2, “Methods of treating ileus” (priority 2002, dated 2010).

Entries after “also recorded” stand apart in the source; their conditions may differ.

One data set has as its system serum IL-6. Nature of the data set: serum IL-6 ELISA after SITx. The format is in vivo, rat. The procedure: Serum samples were taken sequentially at 1, 4 and 24 hours after reperfusion and stored at −80° C. until evaluation. Serum cytokine concentrations, including IL-6, IL-10 and TNFα, were determined using rat enzyme-linked immunoassay (ELISA) kits as described by the manufacturer (R & D, Cambridge, Mass.).
FIG. 6 is a set of bar graphs that illustrate the effect of CO on serum IL-6 and nitrate/nitrite concentrations in animals receiving intestinal grafts at one and four hours after reperfusion. […] Serum IL-6 concentrations were determined using a rat enzyme-linked immunoassay (ELISA) kit (R&D, Cambridge, Mass.). The serum nitrite/nitrate levels, the stable end products of NO metabolism, were measured using a commercially available test kit (Cayman, Ann Arbor, Mich.). In this assay system, nitrate is reduced to nitrite using nitrate reductase, and nitrite concentration of the sample was subsequently measured using the Griess reaction. Serum IL-6 and nitrite/nitrate levels in animals subjected SITx and treated with air increased over time.
(In general: ELISA stands for enzyme-linked immunosorbent assay.)

Another data set deals with IL-10 mRNA. Briefly: Example 3 IL-10 mRNA by SYBR green real time RT-PCR. The conditions noted are these: IM-CO mice. The format is in vivo, mouse. The procedure: Ileus was induced in mice by gentle manipulation of the small intestine. An incision was made to expose the abdominal cavity of the mouse, and bowel manipulation was performed by gentle poking and prodding of the small intestine (see, e.g., Schwarz et al., Gastroenterology 121(6):1354-1357 (2001)). […] Mice were exposed to CO by inhalation (250 and 500 ppm) for 1 hour immediately prior to intestinal manipulation and during the entire 24-hour recovery period. Intestinal contractility was assessed in vitro by measuring circular muscle strip contractions in response to bethanechol (0.3-300 μM) and in vivo by determining intestinal transit from the distribution of orally-fed, fluorescein-labeled dextran and calculating geometric center as described in Example 1 above. HO-1 and IL-10 mRNA expression were determined by SYBR green real time RT-PCR from extracts of muscularis extemae, as described in Example 1 above. Release of nitric oxide (NO), a potent inhibitor of smooth muscle contractility, was estimated by measuring serum total nitrite, also described in Example 1 above.
(In qPCR the cycle at which signal appears reflects the starting amount.)

For the next data set, the system named is IL-6 protein. Briefly: IL-6 protein release from isolated muscularis (ELISA). The format is in vivo, mouse. How it is done:
Protein and Nitric Oxide Determinations. The small bowel of control and mice subjected to intestinal manipulation was removed under sterile conditions, 4 or 24 hours post-operatively, leaving the colon in situ. The small intestine was transferred to a beaker containing chilled Hanks balanced salt solution (Sigma, St. Louis, Mo.) with 200 U/ml penicillin G and 200 μg/ml streptomycin (HBSS), the lumen flushed, and the tissue transferred to a second beaker of HBSS. The muscularis was harvested as described above for real time RT-PCR. Tissues were maintained under sterile conditions at 3 to 5° C. throughout the harvesting procedure. Isolated muscularis was blotted onto sterile gauze, and the wet weight determined to obtain aliquots of 40 to 60 mg. […]
After the incubation period, the muscle tissue was pelleted, and aliquots of culture medium were frozen in liquid nitrogen and stored at −80° C. The levels of IL-6, IL-1β, PGE2, and IL-10 proteins secreted into the culture medium were determined using commercially available ELISA kits (R&D Systems, Minneapolis, Minn.) according to the manufacturer's instructions. […] Nitrate/nitrate levels were measured 24 hrs postoperatively using commercially available test kit (Oxford Biomedical Research, Oxford, Mich.) and quantified according to the manufacturer's directions. […]

Data set [1] in a line: general observations after intestinal manipulation and CO exposure. Format: in vivo, mouse. The conditions noted are these: mice, CO 250 ppm, 1 hour before and 24 hours after laparotomy. An excerpt: Surgical Manipulation. Mice were anesthetized with inhaled isoflurane and the abdomen opened by midline laparotomy. The small intestine was eventrated and gently compressed along its entire length using moistened sterile cotton applicators. This procedure is designed to simulate “running” of the bowel commonly performed during abdominal surgery in the clinical setting. The bowel was repositioned in the abdominal cavity and the incision closed by two layers of continuous sutures. The duration of the procedure was approximately 15 minutes and the animals moved freely about their cage within 20 minutes of withdrawal of anesthetic.
CO Inhalation Treatment. Mice housed in cages were placed in plexiglass chambers that were continuously ventilated with air or with air containing CO (250 ppm). A sampling port was provided to continuously monitor carbon monoxide concentrations within the chamber. Animals had free access to food and water at all times. Mice were exposed to CO or air 1 hour prior to laparotomy, removed for surgical manipulation, and then returned to the chamber for 24 hours. Mice not undergoing surgery were removed from the chamber for a similar length of time and then returned to the chamber for 24 hours.

As to `[C-]#[O+]` [CO, carbon monoxide], the “serum IL-6 level” value in the data set on serum IL-6 (SITx + CO vs SITx with air) is “significantly decreased; also recorded: significantly lower”. For the same compound, the “Serum IL-6” value with serum IL-6 (SITx + CO, 4 hours after reperfusion, Table 2) worked out at 1439 pg/mL. The “IL-10 expression versus controls” value in the data set on IL-10 mRNA was 35 fold. Also, the IL-6 protein release entry is “significantly attenuated” with IL-6 protein (IM + CO vs IM, 24 hr after surgery) and 2000 pg/mL in the data set on IL-6 protein (IM mice treated with CO, 24 hr postoperatively). Also, in data set [1], the “mortality or morbidity associated with the CO exposure regime” value is reported as “No mortality or morbidity”.
